Source: publication PMC7449170, “ATI-2173, a Novel Liver-Targeted Non-Chain-Terminating Nucleotide for Hepatitis B Virus Cure Regimens” (Antimicrobial Agents and Chemotherapy, 2020)

Experiments:
[1] = tested on: HBV genotypes A, B, C, D, E, F, G, and H; test: microbe, parasite or virus in culture; type: cell-based; settings: Hepatitis B virus, HepG2, read-out: EC50 across HBV genotypes A to H
[2] = Protein binding; type: in vitro ADME; settings: data not shown

Molecule `Cc1cn(C2OC(COP(=O)(NC(C)C(=O)OC(C)C)Oc3ccccc3)C(O)C2F)c(=O)[nH]c1=O` (centres unmarked) [ATI-2173] has an EC50 [1] of 212 to 718 nM and a fraction unbound [2] of ~0.45.
